Assay [1] relates to rat uterus. The assay can be described thus: Effects on the Rat Uterus (Test F). Particulars: rat uterus segments, 0.001 to 10.0 mcg/ml, 29° C.; read-out: Activity value, Test F: Effects on Rat Uterus (ED50, response of 50% that of carbachol). As to the method: F. Evaluation of the Effects of Prostaglandin Analogs III on the Rat Uterus
The uterine stimulant effect of test compounds is determined in segments of uterus obtained from rats (140-160 g) pretreated subcutaneously with 1 mg/kg of diethylstibesterol 18 hr before the experiment. The tissues are placed in 10 ml chambers filled with de-Jalon solution at 29° C. and bubbled with 95% O2 and 5% CO2, and prepared for isometric recording with force displacement transducers. Preparations are stretched to an initial tension of 1 g and are left undisturbed for 30 min, after which two responses to 1 mcg/ml of carbachol added to the bath at a 10 min interval, are obtained (the value of the second response is recorded). Responses to increasing concentrations of the test compound (0.001 to 10.0 mcg/ml with one log intervals) are then recorded every 10 min. Preparations are washed four times after each response. All doses of drugs are administered in a 0.1 ml volume. Since it has been observed that the magnitude of the second response to carbachol, which is approximately 10% greater than the first, is close to the maximal response of the tissue, such value is taken as a measure of the sensititity of the particular segment. Responses to each concentration of the test compound are expressed in terms of percentage of the second response to carbachol and the ED50 (dose producing a response of 50% that of carbachol) is calculated graphically. Activity is scored according to the following scale: […]

The test system of assay [2] is blood pressure. The assay can be described thus: Effects on Blood Pressure and Heart Rate in the Anesthetized Cat (Test D). The class given is in vivo. The following applies: Felis catus, iv, i.v. 0.01 to 10.0 mcg/kg, scored on hypotension, read-out: Activity value, Test D: Normal Feline Blood Pressure and Heart Rate (ED50 mmHg). As to the method: D. Evaluation of the Effects of Prostaglandin Analogs III on Blood Pressure and Heart Rate in the Anesthetized Cat
The acute effects of test compounds on blood pressure and heart rate were determined in cats of either sex anesthetized with a mixture of pentobarbital sodium (35 mg/kg, i.v.) and barbital sodium (100 mg/kg, i.v.). Cannulas were placed in the trachea to allow adequate spontaneous ventilation, in a femoral artery for blood pressure recording with a strain gage transducer, and in a saphenous vein for drug administration. Heart rate was recorded by means of a cardiotachometer driven by the R wave of the electrocardiogram. After a period of 10 min of stable recordings of blood pressure and heart rate, the test compound was administered intravenously at doses increasing from 0.01 to 10.0 mcg/kg, spaced one log and injected at 10 min intervals. All doses were injected in a volume of 0.1 ml/kg. Modifications of blood pressure and heart rate induced by the test compound were expressed both in absolute units (mmHg and beats/min) and as percent of values recorded immediately before administration of each dose. Biphasic responses were tabulated in the order in which they occur. The direction of the observed changes was also noted (+ for increase and - for decrease).
Activity of compounds in this test was judged only on the basis of the degree of hypotension observed. Thus, the ED50 mmHg (dose decreasing blood pressure by 50 mmHg) was calculated graphically and the compound scored according to the following scale: […]

Assay [3] concerns femoral blood flow. The assay can be described thus: Effects on Femoral Blood Flow in the Dog (Test C). Format: in vivo, dog (mongrel). The following applies: anesthetized dog, intraarterial 0.001 to 10 mcg. As to the method:
C. Evaluation of the Effects of Prostaglandin Analogs III on the Femoral Blood Flow in the Dog
The peripheral vasodilator or constrictor effects of test compounds were determined in mongrel dogs of either sex, weighing between 10 and 20 kg anesthestized intravenously with 35 mg/kg of sodium pentobarbital. An external iliac artery was dissected immediately above the femoral arch for a length of approximately 5 cm and a previously calibrated, non-connulating electromagnetic flowmeter sensor with a lumen between 2.5 and 3.5 mm was placed snugly around the vessel. Cannulas were placed in a branch of the artery arising distally to the location of the flowmeter sensor for intraarterial drug administrations, in the contralateral femoral artery for systemic blood pressure recordings and in the trachea for artificial respiration with room air. Femoral blood flow and systemic blood pressure were continuously recorded with an electromagnetic flowmeter and pressure transducer, respectively.
After an adequate control period, test compounds were injected intraarterially at one log-spaced doses ranging from 0.001 to 10 mcg., in a volume of 0.5 ml and at 5 to 10 min intervals. Maximum changes in bloodflow, as well as any variations in blood pressure, were tabulated for each dose in absolute values (ml/min and mmHg). The calculations were made taking as control values those existing immediately before administration of each dose. The direction of the observed change (+ for increase and - for decrease) was also noted. The dose changing bloodflow by 100 ml/min (ED100 ml/min) was calculated graphically and was used for scoring activity as follows: […]

Assay [4] has as its system blood pressure (hypertensive rat). Description: Effects on Blood Pressure in the Hypertensive Rat (Test E). Format: in vivo. The arrangement: key: 0: Not significant at any time interval; 1: Significant at one time interval; 2: Significant at two time intervals; 3: Significant at three time intervals; 4: Significant at all four intervals. The following applies: 1 mg/kg intraperitoneal, 2, 4, 6 and 8 hr. The method, then: E. Evaluation of the Effects of Prostaglandin Analogs III on Blood Pressure in the Hypertensive Rat
The acute antihypertensive activity of test compounds is determined in rats made hypertensive by the procedure of Grollman (A. Proc. Soc. Exper. Biol. Med., 57:102, [1944]). Female rats weighing between 60 and 100 g are anesthetized with ether, the right kidney approached through a flank retroperitoneal incision, decapsulated and tied with a figure-of-eight ligature. The animals are left to recover and two weeks later are again anesthetized and the contralateral kidney removed. Four weeks after the second operation the rats are subjected to indirect blood pressure measurements and those showing systolic pressure values greater than 160 mmHg are selected for drug testing.
Blood pressure is measured in the tail with an inflatable occluding cuff placed at the base of the extremity and a pulse detector located distally. The cuff is inflated to approximately 300 mmHg and is slowly deflated until pulsations appear, indicating the level of systolic pressure; diastolic pressure is not recorded by this procedure. All measurements are carried out in unanesthetized, unsedated animals maintained in a warm environment during the recording procedure and for at least 6 hr before. In all cases, three pressure readings are obtained in succession and mean values are calculated thereof.
Experiments are carried out in groups of five hypertensive rats in which systolic pressure is determined immediately before and 2, 4, 6 and 8 hr after the intraperitoneal administration of the test compound at a dose of 1 mg/kg. Drugs are diluted from stock solutions with phosphate buffer (Lee et al., Prostaglandins 3:29 [1973]), so as to inject this quantity in a volume of 1 ml/kg. Changes from control blood pressure values are calculated for each interval both in mmHg and in per-cent, and evaluated for significance by means of Wilcoxon's signed rank test (Wilcoxon and Wilcox, Some rapid approximate statistical procedures, Lederle Laboratories, Pearl River [1964]).

Converted amounts (≈) assume the structure as drawn.

With `CCC1CC([C@H](O)/C=C/[C@H]2[C@H](O)CC(=O)[C@@H]2CCCCCCC(=O)OC)C1` (stereo partly drawn) [TR-4249, Methyl 11α,15S-dihydroxy-16,18-methano-9-oxoprost-13E-en-1-oate], the EC50 in assay [1] is more than 10 µg/mL. In addition, the ED (50 mmHg) in assay [2] was more than 0.0101 mg/kg. The “Activity value, Test C: Increase in Canidae Femoral Blood Flow (ED100 ml/min)” value (“Activity value, Test C: Increase” for short) in assay [3] was 0 (>10.0). Further, the “Activity value, Test E: Effects on Blood Pressure in Hypertensive Rat (blood pressure decrease)” value (shortened to “Activity value … (blood pressure decrease)”) in assay [4] is 0.

As to `CCC1CC(C)([C@H](O)/C=C/[C@H]2[C@H](O)CC(=O)[C@@H]2CCCCCCCO)C1` (stereo partly drawn) [TR-4688, 16,18-Methano-16-methyl-1,11α,15R-trihydroxyprost-13E-en-9-onc], the EC50 in assay [1] is more than 10 µg/mL. The ED (50 mmHg) in assay [2] was more than 0.0101 mg/kg. Moreover, in assay [3], the “Activity value, Test C: Increase” value is recorded as 0 (>10.0). For the same molecule, in assay [4], the “Activity value … (blood pressure decrease)” value is reported as 0.

For `CCC1CC([C@@H](O)/C=C/[C@H]2[C@H](O)CC(=O)[C@@H]2CCCCCCC(=O)OC)C1` (stereo partly drawn) [TR-4248, Methyl 11α,15R-dihydroxy-16,18-methano-9-oxoprost-13E-en-1-oate], the EC50 in assay [1] was 0.101 to 1 µg/mL (≈ 0.265 to 2.63 µM). In addition, the ED (50 mmHg) in assay [2] is 0.00011 to 0.001 mg/kg. In addition, in assay [3], the “Activity value, Test C: Increase” value was 2 (0.11-1.0). Moreover, the “Activity value … (blood pressure decrease)” value in assay [4] is 1.

Regarding `CCC1CC([C@H](O)/C=C/[C@H]2[C@H](O)CC(=O)[C@@H]2CCCCCCCO)C1` (stereo partly drawn) [TR-4570, 16,18-Methano-1,11α,15S-trihydroxyprost-13E-en-9-one], in assay [1], the EC50 was 0.101 to 1 µg/mL (≈ 0.287 to 2.84 µM). For the same molecule, the ED (50 mmHg) in assay [2] is more than 0.0101 mg/kg. For the same molecule, the “Activity value, Test C: Increase” value in assay [3] is listed as 0 (>10.0). Also, in assay [4], the “Activity value … (blood pressure decrease)” value was determined as 0.

`CCC1CC([C@H](O)/C=C/[C@H]2[C@H](O)CC(=O)[C@@H]2CCCCCCO)C1` (relative stereo) [TR-4676, (±)16,18-Methano-1-nor-2,11α,15S-trihydroxyprost-13E-en-9-one]: in assay [1], the EC50 was more than 10 µg/mL. For the same molecule, the ED (50 mmHg) in assay [2] was more than 0.0101 mg/kg. In addition, the “Activity value, Test C: Increase” value in assay [3] is 0 (>10.0). In addition, in assay [4], the “Activity value … (blood pressure decrease)” value turned out to be 0.

Take `COC(=O)CCCCCC[C@H]1C(=O)C[C@@H](O)[C@@H]1/C=C/[C@H](O)C1(C)CCC1` [TR-4691, Methyl 16,19-cyclo-11α,15S-dihydroxy-16-methyl-20-nor-9-oxoprost-13E-en-1-oate]: the EC50 in assay [1] was more than 10 µg/mL. Moreover, in assay [2], the ED (50 mmHg) is more than 0.0101 mg/kg. In addition, the “Activity value, Test C: Increase” value in assay [3] was 2 (0.11-1.0). The “Activity value … (blood pressure decrease)” value in assay [4] was 0.

`CCC1CC([C@@H](O)/C=C/[C@H]2[C@H](O)CC(=O)[C@@H]2CCCCCCCO)C1` (stereo partly drawn) [TR-4569, 16,18-Methano-1,11α,15R-trihydroxyprost-13E-en-9-one]: in assay [1], the EC50 is more than 10 µg/mL. In assay [2], the ED (50 mmHg) was more than 0.0101 mg/kg. For the same molecule, the “Activity value, Test C: Increase” value in assay [3] was 0 (>10.0). Further, the “Activity value … (blood pressure decrease)” value in assay [4] is recorded as 0.

As to `COC(=O)CCCCCC[C@H]1C(=O)C[C@@H](O)[C@@H]1/C=C/[C@@H](O)C1(C)CCC1` [TR-4690, Methyl 16,19-cyclo-11α,15R-dihydroxy-16-methyl-20-nor-9-oxoprost-13E-en-1-oate], the EC50 in assay [1] was more than 10 µg/mL. For the same molecule, in assay [2], the ED (50 mmHg) is 0.00101 to 0.01 mg/kg. For the same molecule, the “Activity value, Test C: Increase” value in assay [3] was 2 (0.11-1.0). For the same molecule, in assay [4], the “Activity value … (blood pressure decrease)” value was 0.

In the case of `CC1([C@H](O)/C=C/[C@H]2[C@H](O)CC(=O)[C@@H]2CCCCCCCO)CCC1` [TR-4673, 16,19-Cyclo-16-methyl-20-nor-1,11α,15R-trihydroxyprost-13E-en-9-one], the EC50 in assay [1] is more than 10 µg/mL. The ED (50 mmHg) in assay [2] was more than 0.0101 mg/kg. In assay [3], the “Activity value, Test C: Increase” value is reported as 0 (>10.0). The “Activity value … (blood pressure decrease)” value in assay [4] turned out to be 1.

`CCC1CC([C@@H](O)/C=C/[C@H]2C=CC(=O)[C@@H]2CCCCCCCOC(C)=O)C1` (stereo partly drawn) [TR-4568, 1-Acetoxy-15R-hydroxy-16,18-methanoprosta-10,13E-dien-9-one]: the EC50 in assay [1] was more than 10 µg/mL. The ED (50 mmHg) in assay [2] is more than 0.0101 mg/kg. In assay [3], the “Activity value, Test C: Increase” value was 0 (>10.0). The “Activity value … (blood pressure decrease)” value in assay [4] is on record as 0.

For `CCC1CC(C)([C@@H](O)/C=C/[C@H]2[C@H](O)CC(=O)[C@@H]2CCCCCCC(=O)OC)C1` (stereo partly drawn) [TR-4682, Methyl 11α,15S-dihydroxy-16,18-methano-16-methyl-9-oxoprost-13E-en-1-oate], the EC50 in assay [1] was more than 10 µg/mL. Also, the ED (50 mmHg) in assay [2] was 0.00101 to 0.01 mg/kg. The “Activity value, Test C: Increase” value in assay [3] is listed as 3 (0.01-0.1). Moreover, the “Activity value … (blood pressure decrease)” value in assay [4] was 0.

Regarding `CCCCC1([C@H](O)/C=C/[C@H]2[C@H](O)CC(=O)[C@@H]2CCCCCCCO)CCC1` [TR-4645, 16,16-Propano-1,11α,15R-trihydroxyprost-13E-en-9-one], the EC50 in assay [1] was more than 10 µg/mL. For the same molecule, in assay [2], the ED (50 mmHg) was more than 0.0101 mg/kg. In assay [3], the “Activity value, Test C: Increase” value was 1 (1.0.-10.0). For the same molecule, in assay [4], the “Activity value … (blood pressure decrease)” value is given as 0.

As for `CCCCC1([C@@H](O)/C=C/[C@H]2[C@H](O)CC(=O)[C@@H]2CCCCCCC(=O)OC)CCC1` [TR-4677, Methyl 11α,15S-dihydroxy-9-oxo-16-,16-propanoprost-13E-en-1-oate], the EC50 in assay [1] is 0.01 to 0.1 µg/mL (≈ 0.0245 to 0.245 µM). Moreover, in assay [2], the ED (50 mmHg) was more than 0.0101 mg/kg. Also, in assay [3], the “Activity value, Test C: Increase” value is 0 (>10.0). In addition, the “Activity value … (blood pressure decrease)” value in assay [4] turned out to be 0.

The values are drawn from patent US4220795A, “Cyclobutyl substituted derivatives of prostaglandin analogs” (Miles Laboratories, Inc., priority 1978, dated 1980).
